Patent US5484803A, “Transcutaneous in vivo activation of photosensitive agents in blood” (priority 1995, dated 1996)
Values joined by “and” are separate entries in the source; they are usually repeats but may differ in a detail not shown here. Identical values can stand only once.

Experiments:
mouse blood [1] = assay: Blood parameters two weeks after treatment (Coulter Counter); format: in vivo, Balb/c mice; conditions: for HB (hemoglobin) / Hct (hematocrit) / MCV / PLT (platelet count) / RBC / WBC: 2 weeks
Description: (§1) Blood Tests: Blood was drawn into syringes containing 50 μl of heparin (1000 units/ml saline). Blood samples (0.45 ml) from at least 1 mouse per time point were sent to the Diagnostic Laboratory at the University Hospital, University of British Columbia site, for analysis by a Coulter Counter. Blood morphology was determined on blood films prepared from selected samples by a laboratory technologist.
(§2) Six Balb/c mice (22±1 g weight) were prepared as described above. Five mice were injected twice (24 hour interval) with BPD from DMSO stock (not liposomal BPD) and exposed to light 1 hour after the injection. One mouse was not injected but was exposed to light (light-only control). During the first treatment the mice were injected with 15 μg BPD/mouse in 200 μl of PBS. During the second treatment the mice were injected with 20 μg BPD/mouse (0.9 mg/kg). A single mouse was used as a control for both treatments.
(§3) Immediately post-injection (on both occasions) the animals were kept for 1 hour in the dark and then were placed in individual plastic containers (9×4×5 cm), which were placed in the light box and exposed to light. The individual mice were removed from the light box at different intervals: 15, 30, 45, 60 and 75 min, respectively. The light doses delivered at the surface of the skin were 27, 54, 81, 108 and 135 J/cm^2, respectively. On the second occasion the same light doses were used; however, mice receiving higher light doses on day 1 received lower doses on day 2. The control mouse was exposed to light for 60 min on both occasions. During light exposure, the mice were constantly observed for signs of discomfort or itching. After the second light exposure, the mice were observed daily for a period of 2 weeks for appearance of the skin and general pattern of behavior.
(§4) Two weeks post-treatment blood samples were obtained from each mouse by a heart puncture, under halothane anesthesia. Then the mice were sacrificed and autopsied. Their spleen, liver and kidneys were weighed.

mice = assay: Tolerability of light exposure starting 15 min post-injection (lethality); format: in vivo, Balb/c mice
Description: In order to determine the level of BPD in plasma during the light treatment, the following experiment was carried out. Fourteen Balb/c mice (22±1 g of weight) were injected with liposomal BPD at 20 μg/mouse (0.9 mg/kg) in 200 μl PBS per mouse. Blood samples were obtained by heart puncture at various time intervals between 15 min and 2 hours post-injection. Exposure to light started at 15 min post-injection for some mice. The BPD concentration in plasma was determined as described above.
At 2 hours post-injection, i.e., at the time point corresponding to the end of 1 hour exposure to light (108 J/cm^2) in the first example, the plasma level of BPD was 2.44 μg/ml. At the beginning of exposure to light, in the same example, the plasma level of BPD was about 4 μg/ml. To further evaluate skin photosensitivity at these low levels, mice were exposed to light at an earlier time post-injection, i.e., at 15 min, when the level of BPD in plasma was 6.32 μg/ml.

[2] = Body and organ weights and gross autopsy two weeks post-treatment; format: in vivo, Balb/c mice
Description: as §2, §3, §4

[3] = test system: free viruses and virally infected cells; conditions: with red light (400-900 nm); spiked blood products and whole blood from viremic cats; cited from earlier work
mouse blood [4] = assay: Blood parameters immediately after light exposure (acute effect); format: in vivo, mice
Description: as §1
Fourteen mice (weight 22±1 g) were used in this study. Twelve mice were injected with 20 μg (0.9 mg/kg) of liposomal BPD (in 200 μl) and kept in the dark for 1 hour before exposure to light. The mice each were exposed to light for 30 min, 1 hour or 1.5 hours, which delivered light doses to the skin surface of 54, 108 and 162 J/cm^2, respectively. Immediately after light exposure, blood samples were obtained. At the corresponding times, blood samples were obtained from two mice injected with BPD, but not exposed to light. Two additional mice were tested one hour after injection.

[5] = mouse 1, light 27 then 135 J/cm^2
[6] = mouse 2, light 54 then 108 J/cm^2
[7] = mouse 3, light 81 then 81 J/cm^2
[8] = mouse 4, light 108 then 54 J/cm^2
[9] = mouse 5, light 135 then 27 J/cm^2
[10] = Drug + Light, individual mice, 2 weeks post-treatment
[11] = BPD 0.87 mg/kg, light 0, 1 1/2 h post inj.
[12] = BPD 0.87 mg/kg, light 0, 2 1/2 h post inj.
[13] = BPD 0.87 mg/kg, light 0, 1 h post inj.
[14] = BPD 0.93 mg/kg, light 0, 2 h post inj.
[15] = BPD 0.93 mg/kg, light 162 J/cm^2, 2 1/2 h post inj.
[16] = BPD 0.95 mg/kg, light 54 J/cm^2, 1 1/2 h post inj.
[17] = BPD 0.95 mg/kg, light 108 J/cm^2, 2 h post inj.

Substance: benzoprophyrin derivative monoacid ring A [BPD]
- HB (hemoglobin) (mouse blood [1]; [5]): 122 g/L
- Hct (hematocrit) (mouse blood [1]; [5]): 0.352
- MCV (mouse blood [1]; [5]): 49.5 fL
- PLT (platelet count) (mouse blood [1]; [5]): 328 10^6 /ml
- RBC (mouse blood [1]; [5]): 7.11 10^9 /ml
- WBC (mouse blood [1]; [5]): 4.0 10^6 /ml
- HB (hemoglobin) (mouse blood [1]; [6]): 126 g/L
- Hct (hematocrit) (mouse blood [1]; [6]): 0.382
- MCV (mouse blood [1]; [6]): 49.2 fL
- PLT (platelet count) (mouse blood [1]; [6]): 274 10^6 /ml
- RBC (mouse blood [1]; [6]): 7.76 10^9 /ml
- WBC (mouse blood [1]; mouse 2, light 54 then 108 J/cm^2, platelet aggregate may contribute): 14.7 10^6 /ml
- HB (hemoglobin) (mouse blood [1]; [7]): 124 g/L
- Hct (hematocrit) (mouse blood [1]; [7]): 0.365
- MCV (mouse blood [1]; [7]): 48.9 fL
- PLT (platelet count) (mouse blood [1]; [7]): 119 10^6 /ml
- RBC (mouse blood [1]; [7]): 7.46 10^9 /ml
- WBC (mouse blood [1]; [7]): 8.2 10^6 /ml
- HB (hemoglobin) (mouse blood [1]; [8]): 123 g/L
- Hct (hematocrit) (mouse blood [1]; [8]): 0.364
- MCV (mouse blood [1]; [8]): 47.6 fL
- PLT (platelet count) (mouse blood [1]; [8]): 438 10^6 /ml
- RBC (mouse blood [1]; [8]): 7.65 10^9 /ml
- WBC (mouse blood [1]; [8]): 7.6 10^6 /ml
- HB (hemoglobin) (mouse blood [1]; [9]): 108 g/L
- Hct (hematocrit) (mouse blood [1]; [9]): 0.316
- MCV (mouse blood [1]; [9]): 48.8 fL
- PLT (platelet count) (mouse blood [1]; [9]): 134 10^6 /ml
- RBC (mouse blood [1]; [9]): 6.47 10^9 /ml
- WBC (mouse blood [1]; [9]): 2.9 10^6 /ml
- all blood values (Tables 3 and 4) (mouse blood [1]; two weeks post-treatment): within normal ranges
- starting plasma level of BPD lethal to mice (mice; light exposure of about 50 J/cm^2 whole body irradiation, 0.9 mg/kg, 15 min): about 6.5 μg/ml
- discomfort on light exposure (mice; light from 15 min post-injection): almost immediately uncomfortable
- death of mice on light exposure (mice; liposomal BPD 0.9 mg/kg, light from 15 min post-injection, 54 J/cm^2): died after 30 min of exposure
- gross morphology and weights of internal organs ([2]; 2 weeks after double treatment, liver, spleen, kidneys): normal
- toxicity (gross examination of liver, spleen, kidneys; blood parameters) ([2]; 2 weeks post-treatment): no toxicity was detected
- Kidneys weight [2, 10]: 0.172 g and 0.343 g and 0.380 g and 0.396 g and 0.310 g
- Liver weight [2, 10]: 1.105 g and 1.190 g and 1.208 g and 1.348 g and 0.958 g
- Spleen weight [2, 10]: 0.077 g and 0.106 g and 0.094 g and 0.108 g and 0.078 g
- Total Body Weight [2, 10]: 22 g and 23 g and 24 g and 25 g and 21 g
- elimination of free viruses and virally infected cells [3]: effective in eliminating both free viruses and virally infected cells
- acute effect on blood parameters (mouse blood [4]; 0.9 mg/kg liposomal BPD, 54-162 J/cm^2): no acute effect on blood parameters was observed
- HB (mouse blood [4]; [11]): 117 g/L
- Hct (mouse blood [4]; [11]): 0.329
- MCV (mouse blood [4]; [11]): 48.7 fL
- PLT (mouse blood [4]; [11]): 428 10^6 /ml
- RBC (mouse blood [4]; [11]): 6.77 10^9 /ml
- WBC (mouse blood [4]; [11]): 4.4 10^6 /ml
- HB (mouse blood [4]; [12]): 129 g/L
- Hct (mouse blood [4]; [12]): 0.372
- MCV (mouse blood [4]; [12]): 48.5 fL
- PLT (mouse blood [4]; [12]): 447 10^6 /ml
- RBC (mouse blood [4]; [12]): 7.68 10^9 /ml
- WBC (mouse blood [4]; [12]): 3.9 10^6 /ml
- HB (mouse blood [4]; [13]): 124 g/L
- Hct (mouse blood [4]; [13]): 0.368
- MCV (mouse blood [4]; [13]): 48.4 fL
- PLT (mouse blood [4]; [13]): 608 10^6 /ml
- RBC (mouse blood [4]; [13]): 7.61 10^9 /ml
- WBC (mouse blood [4]; [13]): 5.5 10^6 /ml
- HB (mouse blood [4]; [14]): 129 g/L
- Hct (mouse blood [4]; [14]): 0.382
- MCV (mouse blood [4]; [14]): 49.1 fL
- PLT (mouse blood [4]; [14]): 475 10^6 /ml
- RBC (mouse blood [4]; [14]): 7.79 10^9 /ml
- WBC (mouse blood [4]; [14]): 11.4 10^6 /ml
- HB (mouse blood [4]; [15]): 116 g/L
- Hct (mouse blood [4]; [15]): 0.353
- MCV (mouse blood [4]; [15]): 49.2 fL
- PLT (mouse blood [4]; [15]): 506 10^6 /ml
- RBC (mouse blood [4]; [15]): 7.17 10^9 /ml
- WBC (mouse blood [4]; [15]): 4.9 10^6 /ml
- HB (mouse blood [4]; [16]): 127 g/L
- Hct (mouse blood [4]; [16]): 0.363
- MCV (mouse blood [4]; [16]): 49.9 fL
- PLT (mouse blood [4]; [16]): 613 10^6 /ml
- RBC (mouse blood [4]; [16]): 7.28 10^9 /ml
- WBC (mouse blood [4]; [16]): 7.0 10^6 /ml
- HB (mouse blood [4]; [17]): 131 g/L
- Hct (mouse blood [4]; [17]): 0.378
- MCV (mouse blood [4]; [17]): 50.1 fL
- PLT (mouse blood [4]; [17]): 440 10^6 /ml
- RBC (mouse blood [4]; [17]): 7.53 10^9 /ml
- WBC (mouse blood [4]; [17]): 8.5 10^6 /ml
